Results reported in ChEMBL document CHEMBL1201862, “PubChem BioAssay data set” (2004).
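Results reflect a 48-hour exposure of cells in 96-well plates to compound at five concentrations. At the GI50, growth is halved.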 Activity calls are given as the source filed them. No stated cut-off is given here; in the data, active = GI50 up to about 1.1 µM and inactive = higher.

Assays:
Assay in all cases: NCI-60 cell line screen, 48 h
NCI-H522 = system: NCI-H522
HOP-92 = system: HOP-92
SF-539 = system: SF-539
UO-31 = system: UO-31
M19-MEL = system: M19-MEL
SNB-19 = system: SNB-19
TK-10 = system: TK-10
HT-29 = system: HT-29
IGROV-1 = system: IGROV-1
NCI-H226 = system: NCI-H226
SN12C = system: SN12C
M14 = system: M14
SNB-75 = system: SNB-75
DMS-114 = system: DMS-114
LXFL 529 = system: LXFL 529
HOP-62 = system: HOP-62
OVCAR-5 = system: OVCAR-5
UACC-62 = system: UACC-62
CCRF-CEM = system: CCRF-CEM
U-251 = system: U-251
Malme-3M = system: Malme-3M
NCI-H23 = system: NCI-H23
UACC-257 = system: UACC-257
KM-20L2 = system: KM-20L2
ACHN = system: ACHN
SK-MEL-2 = system: SK-MEL-2
SF-268 = system: SF-268
MOLT-4 = system: MOLT-4
SNB-78 = system: SNB-78
HCT-15 = system: HCT-15
SK-OV-3 = system: SK-OV-3
OVCAR-8 = system: OVCAR-8
RXF 393 = system: RXF 393
OVCAR-3 = system: OVCAR-3
SF-295 = system: SF-295
SW-620 = system: SW-620
DMS-273 = system: DMS-273
A549 = system: A549
HCT-116 = system: HCT-116
SK-MEL-28 = system: SK-MEL-28
COLO 205 = system: COLO 205
HCC 2998 = system: HCC 2998
CAKI-1 = system: CAKI-1
LOX IMVI = system: LOX IMVI
A498 = system: A498
XF498 = system: XF498
NCI-H460 = system: NCI-H460
HOP-18 = system: HOP-18
OVCAR-4 = system: OVCAR-4
KM12 = system: KM12
786-0 = system: 786-0
K562 = system: K562
SK-MEL-5 = system: SK-MEL-5
DLD-1 = system: DLD-1
EKVX = system: EKVX

Question: `Cc1cc(Cl)cc2c1NC(=O)C2=O.O=C(c1ccccc1)C(F)(F)F` was tested. Which GI50 (NCI-H522) did it give?
Answer: 24.7 µM (inactive)

Question: And the GI50 (HOP-92)?
Answer: 52.6 µM (inactive)

Question: And the GI50 (SF-539)?
Answer: 47.9 µM (inactive)

Question: What about the GI50 (UO-31) of the same molecule?
Answer: 91.6 µM (inactive)

Question: And the GI50 (M19-MEL)?
Answer: 13.3 µM (inactive)

Question: And the GI50 (SNB-19)?
Answer: 72.4 µM (inactive)

Question: What about the GI50 (TK-10) of the same molecule?
Answer: 57.5 µM (inactive)

Question: And the GI50 (HT-29)?
Answer: 78 µM (inactive)

Question: And the GI50 (IGROV-1)?
Answer: > 100 µM (inactive)

Question: What about the GI50 (NCI-H226) of the same molecule?
Answer: > 100 µM (inactive)

Question: And the GI50 (SN12C)?
Answer: 54 µM (inactive)

Question: What about the GI50 (M14) of the same molecule?
Answer: 67 µM (inactive)

Question: And the GI50 (SNB-75)?
Answer: 41.1 µM (inactive)

Question: What about the GI50 (DMS-114) of the same molecule?
Answer: 30.7 µM (inactive)

Question: What about the GI50 (LXFL 529) of the same molecule?
Answer: 56.1 µM (inactive)

Question: And the GI50 (HOP-62)?
Answer: > 100 µM (inactive)

Question: And the GI50 (OVCAR-5)?
Answer: > 100 µM (inactive)

Question: And the GI50 (UACC-62)?
Answer: 19.9 µM (inactive)

Question: And the GI50 (CCRF-CEM)?
Answer: 17.2 µM (inactive)

Question: What about the GI50 (U-251) of the same molecule?
Answer: 85.9 µM (inactive)

Question: And the GI50 (Malme-3M)?
Answer: 45.6 µM (inactive)

Question: And the GI50 (NCI-H23)?
Answer: > 100 µM (inactive)

Question: And the GI50 (UACC-257)?
Answer: 27.5 µM (inactive)

Question: And the GI50 (KM-20L2)?
Answer: 76 µM (inactive)

Question: And the GI50 (ACHN)?
Answer: 75.7 µM (inactive)

Question: What about the GI50 (SK-MEL-2) of the same molecule?
Answer: 36 µM (inactive)

Question: And the GI50 (SF-268)?
Answer: > 100 µM (inactive)

Question: What about the GI50 (MOLT-4) of the same molecule?
Answer: 20.1 µM (inactive)

Question: And the GI50 (SNB-78)?
Answer: 24.4 µM (inactive)

Question: What about the GI50 (HCT-15) of the same molecule?
Answer: 64.4 µM

Question: And the GI50 (SK-OV-3)?
Answer: > 100 µM (inactive)

Question: What about the GI50 (OVCAR-8) of the same molecule?
Answer: 55.5 µM (inactive)

Question: What about the GI50 (RXF 393) of the same molecule?
Answer: 73.3 µM (inactive)

Question: What about the GI50 (OVCAR-3) of the same molecule?
Answer: 35.3 µM (inactive)

Question: And the GI50 (SF-295)?
Answer: 56.2 µM (inactive)

Question: What about the GI50 (SW-620) of the same molecule?
Answer: 72.8 µM (inactive)

Question: What about the GI50 (DMS-273) of the same molecule?
Answer: 50.7 µM (inactive)

Question: And the GI50 (A549)?
Answer: 52.2 µM (inactive)

Question: What about the GI50 (HCT-116) of the same molecule?
Answer: 59.8 µM (inactive)

Question: What about the GI50 (SK-MEL-28) of the same molecule?
Answer: 93.1 µM (inactive)

Question: What about the GI50 (COLO 205) of the same molecule?
Answer: 57.7 µM (inactive)

Question: And the GI50 (HCC 2998)?
Answer: > 100 µM (inactive)

Question: What about the GI50 (CAKI-1) of the same molecule?
Answer: 39.3 µM (inactive)

Question: And the GI50 (LOX IMVI)?
Answer: 15.3 µM (inactive)

Question: And the GI50 (A498)?
Answer: > 100 µM (inactive)

Question: What about the GI50 (XF498) of the same molecule?
Answer: 30.1 µM (inactive)

Question: And the GI50 (NCI-H460)?
Answer: 70.5 µM (inactive)

Question: What about the GI50 (HOP-18) of the same molecule?
Answer: 59.7 µM (inactive)

Question: What about the GI50 (OVCAR-4) of the same molecule?
Answer: 33 µM (inactive)

Question: What about the GI50 (KM12) of the same molecule?
Answer: 61 µM (inactive)

Question: What about the GI50 (786-0) of the same molecule?
Answer: 70.1 µM (inactive)

Question: And the GI50 (K562)?
Answer: 32.4 µM (inactive)

Question: And the GI50 (SK-MEL-5)?
Answer: 41.7 µM (inactive)

Question: And the GI50 (DLD-1)?
Answer: 60.1 µM (inactive)

Question: And the GI50 (EKVX)?
Answer: 49 µM (inactive)
